Like-named read-outs stand apart in the source and are kept apart here.
Tests used:
[1] = target: T1, HCV NS5B (Hepatitis C virus genotype 1b, UniProt Q9WMX2); test: Modified HCV NS5B RdRp enzyme assay (preincubation protocol); assay type: biochemical; details: HCV NS5B RdRp genotype 1b
T1 construct: The protein was expressed with an 18 amino acid C-terminal truncation to enhance the solubility; made in house; host or cells: E. coli BL21(DE3), pET21a vector
Procedure: HCV NS5B RdRp cloning, expression, and purification. The cDNA encoding the NS5B protein of HCV, genotype 1b, was cloned into the pET21a expression vector. The protein was expressed with an 18 amino acid C-terminal truncation to enhance the solubility. The E. coli competent cell line BL21(DE3) was used for expression of the protein. Cultures were grown at 37 °C for ∼ 4 hours until the cultures reached an optical density of 2.0 at 600 nm. The cultures were cooled to 20 °C and induced with 1 mM IPTG. Fresh ampicillin was added to a final concentration of 50 µg/ml and the cells were grown overnight at 20 °C.
Cell pellets (3L) were lysed for purification to yield 15-24 mgs of purified NS5B. The lysis buffer consisted of 20 mM Tris-HCl, pH 7.4, 500 mM NaCl, 0.5% triton X-100, 1 mM DTT, 1mM EDTA, 20% glycerol, 0.5 mg/ml lysozyme, 10 mM MgCl2, 15 ug/ml deoxyribonuclease I, and Complete TM protease inhibitor tablets (Roche). After addition of the lysis buffer, frozen cell pellets were resuspended using a tissue homogenizer. To reduce the viscosity of the sample, aliquots of the lysate were sonicated on ice using a microtip attached to a Branson sonicator. The sonicated lysate was centrifuged at 100,000 x g for 1hr at 4 °C and filtered through a 0.2 µm filter unit (Corning).
The protein was purified using three sequential chromatography steps: Heparin sepharose CL-6B, polyU sepharose 4B, and Hitrap SP sepharose (Pharmacia). The chromatography buffers were identical to the lysis buffer but contained no lysozyme, deoxyribonuclease I, MgCl2 or protease inhibitor and the NaCl concentration of the buffer was adjusted according to the requirements for charging the protein onto the column. Each column was eluted with a NaCl gradient which varied in length from 5-50 column volumes depending on the column type. After the final chromatography step, the resulting purity of the enzyme is >90% based on SDS-PAGE analysis. The enzyme was aliquoted and stored at -80 °C.
Standard HCV NS5B RdRp enzyme assay. HCV RdRp genotype 1b assays were run in a final volume of 60 µl in 96 well plates (Costar 3912). The assay buffer is composed of 20 mM Hepes, pH 7.5, 2.5 mM KCl, 2.5 mM MgCl2, 1 mM DTT, 1.6 U RNAse inhibitor (Promega N2515), 0.1 mg/ml BSA (Promega R3961), and 2 % glycerol. All compounds were serially diluted (3-fold) in DMSO and diluted further in water such that the final concentration of DMSO in the assay was 2%. HCV RdRp genotype 1b enzyme was used at a final concentration of 28 nM. A polyA template was used at 6 nM, and a biotinylated oligo-dT12 primer was used at 180 nM final concentration. Template was obtained commercially (Amersham 27-4110). Biotinylated primer was prepared by Sigma Genosys. 3H-UTP was used at 0.6 µCi (0.29 µM total UTP). Reactions were initiated by the addition of enzyme, incubated at 30 °C for 60 min, and stopped by adding 25 µl of 50 mM EDTA containing SPA beads (4 µg/µl, Amersham RPNQ 0007). Plates were read on a Packard Top Count NXT after >1hr incubation at room temperature.
Modified HCV NS5B RdRp enzyme assay. A modified enzyme assay was performed essentially as described for the standard enzyme assay except for the following: The biotinylated oligo dT12 primer was precaptured on streptavidin-coated SPA beads by mixing primer and beads in assay buffer and incubating at room temperature for one hour. Unbound primer was removed after centrifugation. The primer-bound beads were resuspended in 20 mM Hepes buffer, pH 7.5 and used in the assay at final concentrations of 20 nM primer and 0.67 µg/µl beads. Order of addition in the assay: enzyme (14 nM) was added to diluted compound followed by the addition of a mixture of template (0.2 nM) , 3H-UTP (0.6 µCi, 0.29 µM), and primer-bound beads, to initiate the reaction; concentrations given are final. Reactions were allowed to proceed for 4 hours at 30° C.
IC50 values for compounds were determined using seven different [I]. […]

[2] = test system: HCV replicon; test: HCV FRET screening assay in HCV replicon cells; assay type: cell-based; details: Hepatitis C virus
Source text: FRET Assay Preparation. To perform the HCV FRET screening assay, 96-well cell culture plates were used. The FRET peptide (Anaspec, Inc.) (Taliani et al., Anal. Biochem. 1996, 240, 60-67) contains a fluorescence donor, EDANS, near one end of the peptide and an acceptor, DABCYL, near the other end. The fluorescence of the peptide is quenched by […] resonance energy transfer (RET) between the donor and the acceptor, but as the NS3 protease cleaves the peptide the products are released from RET quenching and the fluorescence of the donor becomes apparent. The assay reagent was made as follows: 5X cell Luciferase cell culture lysis reagent from Promega (#E153A) diluted to 1X with dH2O, NaCl added to 150 mM final, the FRET peptide diluted to 20 uM final from a 2 mM stock.
To prepare plates, HCV replicon cells, with or without a Renilla luciferase reporter gene, were trypsinized and placed into each well of a 96-well plate with titrated test compounds added in columns 3 through 12; columns 1 and 2 contained a control compound (HCV protease inhibitor), and the bottom row contained cells without compound. The plates were then placed in a CO2 incubator at 37 °C.
Assays. Subsequent to addition of the test compounds described above (FRET Assay Preparation), at various times the plate was removed and Alamar blue solution (Trek Diagnostics, #00-100) was added per well as a measure of cellular toxicity. After reading in a Cytoflour 4000 instrument (PE Biosystems), plates were rinsed with PBS and then used for FRET assay by the addition of 30 ul of the FRET peptide assay reagent described above (FRET Assay Preparation) per well. The plate was then placed into the Cytoflour 4000 instrument which had been set to 340 excite/490 emission, automatic mode for 20 cycles and the plate read in a kinetic mode. Typically, the signal to noise using an endpoint analysis after the reads was at least three-fold. Alternatively, after Alamar blue reading, plates were rinsed with PBS, 50 ul of DMEM (high glucose) without phenol red was added and plates were then used for luciferase assay using the Promega Dual-Glo Luciferase Assay System.
Compound analysis was determined by quantification of the relative HCV replicon inhibition and the relative cytotoxicity values. To calculate cytoxicity values, the average Alamar Blue fluorescence signals from the control wells were set as 100% non-toxic. The individual signals in each of the compound test wells were then divided by the average control signal and multiplied by 100% to determine […]. To calculate the HCV replicon inhibition values, an average background value was obtained from the two wells containing the highest amount of HCV protease inhibitor at the end of the assay period. These numbers were similar to those obtained from naïve Huh-7 cells.
The background numbers were then subtracted from the average signal obtained from the control wells and this number was used as 100% activity. The individual signals in each of the compound test wells were then divided by the averaged control values after background subtraction and multiplied by 100% to determine percent activity. EC50 values for a protease inhibitor titration were calculated as the concentration which caused a 50% reduction in FRET or luciferase activity. The two numbers generated for the compound plate, percent cytoxicity and percent activity were used to determine compounds of interest for further analysis.

[3] = HCV replicon cells, FRET assay, read-out: EC50

T1 sequence (Q9WMX2 2420-2992): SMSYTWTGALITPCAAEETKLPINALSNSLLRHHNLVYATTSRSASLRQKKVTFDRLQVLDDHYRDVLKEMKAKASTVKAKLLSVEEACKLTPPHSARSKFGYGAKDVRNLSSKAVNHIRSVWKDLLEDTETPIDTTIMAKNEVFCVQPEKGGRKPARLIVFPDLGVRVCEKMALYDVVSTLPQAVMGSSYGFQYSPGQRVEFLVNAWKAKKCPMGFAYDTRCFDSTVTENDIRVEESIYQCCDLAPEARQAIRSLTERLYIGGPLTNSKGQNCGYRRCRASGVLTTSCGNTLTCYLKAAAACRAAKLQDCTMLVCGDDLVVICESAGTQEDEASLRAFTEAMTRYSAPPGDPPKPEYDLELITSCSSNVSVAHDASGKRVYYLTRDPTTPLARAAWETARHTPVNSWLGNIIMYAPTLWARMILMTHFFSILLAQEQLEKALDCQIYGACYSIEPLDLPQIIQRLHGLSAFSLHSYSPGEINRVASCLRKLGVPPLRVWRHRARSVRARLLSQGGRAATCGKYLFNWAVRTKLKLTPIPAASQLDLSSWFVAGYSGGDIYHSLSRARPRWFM

Compound | IC50 [1] [nM] | EC50 [2, 3] [nM] | EC50 [2] [nM]
COc1ccc2c(c1)C1CC1(C(=O)N1CCCCC1CN(C)C)Cn1c-2c(C2CCCCC2)c2ccc(C(=O)NS(=O)(=O)N(C)C)cc21 (centres unmarked) [drawing 49] | 97 to 1000 | 97 to 1000 | 
COc1ccc2c(c1)C1CC1(C(=O)N1CC(C)OC(C)C1)Cn1c-2c(C2CCCCC2)c2ccc(C(=O)NS(C)(=O)=O)cc21 (centres unmarked) | 97 to 1000 |  | 97 to 1000
COc1ccc2c(c1)C1CC1(C(=O)N1CCN(c3ccccn3)CC1)Cn1c-2c(C2CCCCC2)c2ccc(C(=O)NS(=O)(=O)C3CC3)cc21 (centres unmarked) | 97 to 1000 | 97 to 1000 | 
COc1ccc2c(c1)C1CC1(C(=O)N1CCC(C)(O)CC1)Cn1c-2c(C2CCCCC2)c2ccc(C(=O)NS(N)(=O)=O)cc21 (centres unmarked) | 97 to 1000 | 97 to 1000 | 
COc1ccc2c(c1)C1CC1(C(=O)N1CCOC[C@H]1C)Cn1c-2c(C2CCCCC2)c2ccc(C(=O)NS(=O)(=O)N(C)C)cc21 (some centres unmarked) | 97 to 1000 | 97 to 1000 | 
COc1ccc2c(c1)C1CC1(C(=O)N1CCCN(C)CC1)Cn1c-2c(C2CCCCC2)c2ccc(C(=O)NS(N)(=O)=O)cc21 (centres unmarked) | 97 to 1000 | 97 to 1000 | 
COc1ccc2c(c1)C1CC1(C(=O)N1CCOC[C@H]1CO)Cn1c-2c(C2CCCCC2)c2ccc(C(=O)NS(=O)(=O)N(C)C)cc21 (some centres unmarked) | 97 to 1000 | 97 to 1000 | 
COc1cccc2c1C1CC1(C(=O)N1C[C@@H](C)N[C@@H](C)C1)Cn1c-2c(C2CCCCC2)c2ccc(C(=O)NS(=O)(=O)N(C)C)cc21 (some centres unmarked) | 97 to 1000 | 97 to 1000 | 
COc1cccc2c1C1CC1(C(=O)N1C[C@@H](C)O[C@@H](C)C1)Cn1c-2c(C2CCCCC2)c2ccc(C(=O)NS(=O)(=O)N(C)C)cc21 (some centres unmarked) | 97 to 1000 | 97 to 1000 | 
COc1ccc2c(c1)[C@H]1C[C@@]1(C(=O)O)Cn1c-2c(C2CCCCC2)c2ccc(C(=O)NS(=O)(=O)N(C)C)cc21 | 97 to 1000 |  | 1000 to 10000
C[C@@H]1CN(C(=O)C23CC2c2c(OC(F)(F)F)cccc2-c2c(C4CCCCC4)c4ccc(C(=O)O)cc4n2C3)C[C@H](C)O1 (some centres unmarked) | 97 to 1000 | 97 to 1000 | 
COc1ccc2c(c1)C1CC1(C(=O)N1CC[C@H](N(C)C)C1)Cn1c-2c(C2CCCCC2)c2ccc(C(=O)NS(=O)(=O)N(C)C)cc21 (some centres unmarked) | 97 to 1000 | 97 to 1000 | 
COc1ccc2c(c1)C1CC1(C(=O)N1CC[C@@H](N(C)C)C1)Cn1c-2c(C2CCCCC2)c2ccc(C(=O)NS(=O)(=O)N(C)C)cc21 (some centres unmarked) | 97 to 1000 | 97 to 1000 | 
COc1ccc2c(c1)C1CC1(C(=O)N1CCCNCC1)Cn1c-2c(C2CCCCC2)c2ccc(C(=O)NS(=O)(=O)N(C)C)cc21 (centres unmarked) | 97 to 1000 | 97 to 1000 | 
COc1ccc2c(c1)C1CC1(C(=O)N1CCCN(C)CC1)Cn1c-2c(C2CCCCC2)c2ccc(C(=O)NS(=O)(=O)C(C)C)cc21 (centres unmarked) | 97 to 1000 | > 120 | 
COc1ccc2c(c1)C1CC1(C(=O)N1CCC(C)(O)CC1)Cn1c-2c(C2CCCCC2)c2ccc(C(=O)NS(C)(=O)=O)cc21 (centres unmarked) | 97 to 1000 | 97 to 1000 | 
COc1ccc2c(c1)[C@@H]1C[C@]1(C(=O)O)Cn1c-2c(C2CCCCC2)c2ccc(C(=O)NS(=O)(=O)N(C)C)cc21 | 97 to 1000 |  | 1000 to 10000
CCN(CC)CCN1CCCN(C(=O)C23CC2c2cc(OC)ccc2-c2c(C4CCCCC4)c4ccc(C(=O)NS(=O)(=O)N(C)C)cc4n2C3)CC1 (centres unmarked) | 97 to 1000 | 97 to 1000 | 
COc1ccc2c(c1)C1CC1(C(=O)N1CCC(C)(O)CC1)Cn1c-2c(C2CCCCC2)c2ccc(C(=O)NS(=O)(=O)N(C)C)cc21 (centres unmarked) | 97 to 1000 | 97 to 1000 | 

Reference: EP2121694B1, “CYCLOPROPYL FUSED INDOLOBENZAZEPINE HCV NS5B INHIBITORS” (Bristol-Myers Squibb Company, priority 2007, dated 2008)
